The values below come from patent EP1144365B1 (TANABE SEIYAKU CO., LTD., priority 1998, dated 2000).

The structures appear in SMILES notation.

One test concerns the target T1, α4β1 (Homo sapiens, UniProt P05556+P13612).
T1 construct: 100 µl of Jurkat cells (2.5 x 10^6 cells/ml) in DMEM plus BSA; host or cells: Jurkat T-cell line
Briefly: Jurkat-CS-1 assay. The class given is cell-based. Conditions: Jurkat cell adhesion to immobilized CS-1 derived peptide. The protocol: The CS-1 derived peptide, CLHPGEILDVPST, and the scrambled control peptide, CLHGPIELVSDPT, were synthesized on a Beckman 990 synthesizer using t-Boc methodology. The peptides were immobilized onto microtiter plates using the heterobifunctional crosslinker 3-(2-pyridyldithio)propionic acid N-hydroxysuccinimide ester (SPDP) as reported by Pierschbacher et al., Proc. Natl. Acad. USA, 80:1224-1227 (1983). Microtiter plates were coated with 20 µg/ml HSA for 2 hr. at room temperature, washed once with PBS and derivatized with 10 µg/ml SPDP for 1 hr. After washing, 100 µl of a 100 µg/ml cysteine containing peptide solution which had been recently dissolved was added to the wells and allowed to crosslink to the plates overnight at 4 °C. Unbound peptide was removed from plates by washing with PBS. To block non-reacted sites, the plates are coated with 100 µl of a 2.5 mg/ml BSA solution in PBS for 1 hr. at 37 °C. 100 µl of Jurkat cells (2.5 x 10^6 cells/ml) in DMEM plus BSA (2.5 mg/ml) was mixed with an appropriate concentration of the compound to be tested and the mixture was added to peptide coated dishes and incubated for 1 hr. at 37 °C. Generally 100, 20, 5 and 1.25 µM concentrations of the compound were tested.
Following this incubation the plates were washed once with PBS and the attached cells were fixed with 3% paraformaldehyde in PBS and stained with 0.5% toluidine blue in 3.7% formaldehyde. The cells were stained overnight at room temperature and the optical density at 590 nm of toluidine blue stained cells was determined using a vertical pathway spectrophotometer to quantitate attachment (VMAX Kinetic Microplate Reader, Molecular Devices, Menlo Park, CA). This procedure is a modification of a previously published method (Cardarelli et al, J. Biol. Chem., 269:18668-18673 (1994) and Cardarelli et al, Proc. Natl. Acad. Sci. USA, 83:2647-2651 (1986)).

Another test deals with T2, α4β1 integrin (Homo sapiens, UniProt P05556+P13612).
T2 construct: a T-cell line, Jurkat, known to express the α4β1 integrin; host or cells: Jurkat T-cell line
T2 sequence (P13612 34-1032): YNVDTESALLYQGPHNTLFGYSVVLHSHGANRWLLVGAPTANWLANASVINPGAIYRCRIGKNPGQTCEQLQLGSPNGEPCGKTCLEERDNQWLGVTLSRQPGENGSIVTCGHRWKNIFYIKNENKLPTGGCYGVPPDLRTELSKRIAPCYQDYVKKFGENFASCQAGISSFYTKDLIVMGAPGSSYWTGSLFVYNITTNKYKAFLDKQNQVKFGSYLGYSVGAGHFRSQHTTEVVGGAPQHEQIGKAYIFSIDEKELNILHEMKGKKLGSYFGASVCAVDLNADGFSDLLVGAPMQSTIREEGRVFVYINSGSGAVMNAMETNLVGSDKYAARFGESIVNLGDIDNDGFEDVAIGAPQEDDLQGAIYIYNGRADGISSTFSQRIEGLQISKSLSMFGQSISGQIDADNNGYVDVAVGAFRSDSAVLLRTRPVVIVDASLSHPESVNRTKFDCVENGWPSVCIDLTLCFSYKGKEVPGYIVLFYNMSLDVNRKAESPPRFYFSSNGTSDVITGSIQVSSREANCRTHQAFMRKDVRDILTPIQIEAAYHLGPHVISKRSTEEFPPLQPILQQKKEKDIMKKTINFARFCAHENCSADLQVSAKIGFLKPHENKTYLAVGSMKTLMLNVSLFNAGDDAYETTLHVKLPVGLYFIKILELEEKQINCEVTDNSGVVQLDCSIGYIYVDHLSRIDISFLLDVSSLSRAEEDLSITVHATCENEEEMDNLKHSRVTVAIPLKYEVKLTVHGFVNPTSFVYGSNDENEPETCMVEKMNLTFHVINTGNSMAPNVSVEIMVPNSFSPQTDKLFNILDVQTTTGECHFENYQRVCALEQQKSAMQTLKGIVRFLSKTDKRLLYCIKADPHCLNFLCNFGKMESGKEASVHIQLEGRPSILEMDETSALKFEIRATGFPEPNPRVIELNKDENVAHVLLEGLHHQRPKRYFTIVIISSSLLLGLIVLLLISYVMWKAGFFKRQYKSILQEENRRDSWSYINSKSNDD
T2 sequence (P05556 21-798): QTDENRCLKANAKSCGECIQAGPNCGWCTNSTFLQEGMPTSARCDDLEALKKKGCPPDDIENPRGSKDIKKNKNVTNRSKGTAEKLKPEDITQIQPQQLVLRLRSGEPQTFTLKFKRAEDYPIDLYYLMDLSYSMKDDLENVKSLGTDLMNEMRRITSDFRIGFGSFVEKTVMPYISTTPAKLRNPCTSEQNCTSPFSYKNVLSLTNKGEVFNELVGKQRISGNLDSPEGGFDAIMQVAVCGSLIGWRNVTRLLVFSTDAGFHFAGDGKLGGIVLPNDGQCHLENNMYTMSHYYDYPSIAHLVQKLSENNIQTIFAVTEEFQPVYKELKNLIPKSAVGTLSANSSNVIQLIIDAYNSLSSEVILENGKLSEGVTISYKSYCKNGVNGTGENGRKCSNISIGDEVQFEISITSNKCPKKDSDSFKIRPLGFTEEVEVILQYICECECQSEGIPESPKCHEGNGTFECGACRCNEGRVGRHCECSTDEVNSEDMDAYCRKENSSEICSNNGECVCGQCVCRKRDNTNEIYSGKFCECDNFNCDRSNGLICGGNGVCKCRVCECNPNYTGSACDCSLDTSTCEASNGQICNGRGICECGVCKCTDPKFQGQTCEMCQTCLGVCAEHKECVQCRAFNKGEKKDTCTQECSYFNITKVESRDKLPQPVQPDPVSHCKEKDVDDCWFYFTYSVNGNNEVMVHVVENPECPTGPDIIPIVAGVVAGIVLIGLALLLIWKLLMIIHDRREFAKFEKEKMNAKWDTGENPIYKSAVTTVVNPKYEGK
Nature of the test: Jurkat-Endothelial Cell Adhesion Assay (Jurkat EC). The class given is cell-based. Conditions: Jurkat cell adhesion to IL-1 stimulated endothelial cell monolayers. As for the experimental part: The following assay established the activity of the present compounds in inhibiting β1-mediated cell adhesion in a representative in vitro system. This assay measures the adhesive interactions of a T-cell line, Jurkat, known to express the α4β1 integrin, to endothelial monolayers in the presence of test compounds. The test compounds were added in increasing concentrations to T-cells and then the T-cell compound mixture was added to IL-1 stimulated endothelial cell monolayers. The plates were incubated, washed and the percentage of attached cells was quantitated.
Human umbilical vein endothelial cells were purchased from Clonetics (San Diego, CA.) at passage number 2. The cells were grown on 0.5% porcine skin gelatin pre-coated flasks (Sigma, St. Louis MO.) in EGM-UV media (Clonetics, San Diego, CA) supplemented with 10% fetal bovine serum. Cells are refed every 2-3 days reaching confluence by day 4 to 6. […] The endothelial cells are not used following passage 6.
The T-cell line Jurkat was obtained from American Type Tissue Culture Collection (Rockville, MD) and the cells were cultured in RPMI containing 10 % fetal calf serum. The cells were washed twice in Hank's Balanced Salt Solution (HBSS) and resuspended in Dulbecco's Minimal Eagle's Media (DMEM) containing 2.5 mg/ml Human Serum Albumin (HSA). Jurkat cells (1x10^6 cells/ml) were stained with 10 ng/ml BCECF-AM (Molecular Probes, Eugene, OR)) in HBSS without phenol red. The cells were loaded with BCECF for 60 minutes in the dark at 37°C, washed 2 times, and resuspended in DMEM-HSA solution.
Confluent endothelial monolayers, grown in 96-well tissue culture plates, were stimulated for 4 hr. at 37 °C with 0.1 ng/ml (∼50 U/ml) recombinant IL-1 (Amgen, Thousand Oaks, CA). Following this incubation, the monolayers were washed twice with HBSS and 0.1 ml of DMEM-HSA solution was added. Jurkat cells (5 x 10^5 cells) were combined with the appropriate concentration of the test compound and 0.1 ml of the Jurkat cell-compound mixture was added to the endothelial cell monolayers. Generally, 100, 20, 5 and 1.25 µM compound concentrations were tested. […] Following this incubation, the monolayers were washed twice with PBS containing 1 mM calcium chloride and 1 mM magnesium chloride' and the plates were read using a Millipore Cytofluor 2300 (Marlboro, MA.). Fluorescence in each well was measured as Arbitrary Fluorescence Units and percent adhesion in the absence of compound was adjusted to 100% and the % adhesion in the presence of compound was calculated. Monolayers were also fixed in 3% paraformaldehyde and evaluated microscopically to verify the adhesion. This procedure is a modification of a previously published method (Cardarelli et al., J. Biol. Chem. 269:18668-18673 (1994)).

T1 sequence (P13612 34-1032): as the sequence (P13612 34-1032) above
T1 sequence (P05556 21-798): as the sequence (P05556 21-798) above

The IC50 is the point on the concentration scale where inhibition reaches its midpoint. High values mean a need for much substance, low ones inhibition by little substance. Take `O=C(Nc1ccc(C[C@H](NC(=O)[C@@H]2CCC[C@H]2C(=O)O)C(=O)O)cc1)c1c(Cl)cccc1Cl` [Example 9]: the IC50 against α4β1 lay within 500 to 1000 nM; against α4β1 integrin, 800 to 5000 nM.
The matching figures for `CC(=O)c1cccc(OC(C)(C)C(=O)N[C@@H](Cc2ccc(NC(=O)c3c(Cl)cccc3Cl)cc2)C(=O)O)c1` [Example 19]: 500 to 1000 nM and 800 to 5000 nM.
For the compound `CC(C)(Sc1ccccc1C(=O)O)C(=O)N[C@@H](Cc1ccc(NC(=O)c2c(Cl)cccc2Cl)cc1)C(=O)O` [Example 25], the IC50 was 500 to 1000 nM against α4β1 and at most 800 nM against α4β1 integrin.
On to `O=C(O)/C=C\C(=O)Nc1cccc(C(=O)N[C@@H](Cc2ccc(NC(=O)c3c(Cl)cccc3Cl)cc2)C(=O)O)c1` [Example 36], for which the IC50 against α4β1 fell in the range of 500 to 1000 nM; at α4β1 integrin, 800 to 5000 nM.
Turning to `O=C(O)/C=C/C(=O)Nc1cccc(C(=O)N[C@@H](Cc2ccc(NC(=O)c3c(Cl)cccc3Cl)cc2)C(=O)O)c1` [Example 37], the IC50 lay within 500 to 1000 nM on α4β1 and 5000 to 10000 nM against α4β1 integrin.
On to `O=C(N[C@@H](Cc1ccc(NC(=O)c2c(Cl)cccc2Cl)cc1)C(=O)O)c1cccc(NC(=O)C2CCCC(C(=O)O)C2)c1` (some centres unmarked) [Example 38], for which the IC50 on α4β1 was 500 to 1000 nM; at α4β1 integrin, 800 to 5000 nM.
In the case of `O=C(O)c1cncc(C(=O)Nc2cccc(C(=O)N[C@@H](Cc3ccc(NC(=O)c4c(Cl)cccc4Cl)cc3)C(=O)O)c2)c1` [Example 44], the IC50 on α4β1 was 80 to 500 nM; against α4β1 integrin, 5000 to 10000 nM.
Regarding `O=C(O)CCC(=O)NC1(C(=O)N[C@@H](Cc2ccc(NC(=O)c3c(Cl)cccc3Cl)cc2)C(=O)O)CCCCC1` [Example 46], the figures for the IC50 against α4β1 and on α4β1 integrin were 80 to 500 nM and 800 to 5000 nM, respectively.
The matching figures for `O=C(O)CC1(CC(=O)NC2(C(=O)N[C@@H](Cc3ccc(NC(=O)c4c(Cl)cccc4Cl)cc3)C(=O)O)CCCCC2)CCCC1` [Example 47]: 80 to 500 nM and 5000 to 10000 nM.
The like results for `CC(C)(CC(=O)O)CC(=O)NC1(C(=O)N[C@@H](Cc2ccc(NC(=O)c3c(Cl)cccc3Cl)cc2)C(=O)O)CCCCC1` [Example 48] were, in that order, 80 to 500 nM and 800 to 5000 nM.
As to `O=C(O)/C=C\C(=O)NC1(C(=O)N[C@@H](Cc2ccc(NC(=O)c3c(Cl)cccc3Cl)cc2)C(=O)O)CCCCC1` [Example 49], the IC50 against α4β1 was 80 to 500 nM; at α4β1 integrin, at most 800 nM.
The like results for `O=C(O)/C=C/C(=O)NC1(C(=O)N[C@@H](Cc2ccc(NC(=O)c3c(Cl)cccc3Cl)cc2)C(=O)O)CCCCC1` [Example 50] were, in that order, 500 to 1000 nM and 5000 to 10000 nM.
In the case of `COCCC(=O)NC1(C(=O)N[C@@H](Cc2ccc(NC(=O)c3c(Cl)cccc3Cl)cc2)C(=O)O)CCCCC1` [Example 51], the results for the IC50 on α4β1 and against α4β1 integrin were at most 80 nM and 800 to 5000 nM, respectively.
The like results for `O=C(Nc1ccc(C[C@H](NC(=O)C2(NC(=O)C3CCCC(C(=O)O)C3)CCCCC2)C(=O)O)cc1)c1c(Cl)cccc1Cl` (some centres unmarked) [Example 52] were, in that order, at most 80 nM and 800 to 5000 nM.
The like results for `CC(=O)CCC(=O)NC1(C(=O)N[C@@H](Cc2ccc(NC(=O)c3c(Cl)cccc3Cl)cc2)C(=O)O)CCCCC1` [Example 53] were, in that order, at most 80 nM and at most 800 nM.
The matching figures for `COc1ccc(C(=O)NC2(C(=O)N[C@@H](Cc3ccc(NC(=O)c4c(Cl)cccc4Cl)cc3)C(=O)O)CCCCC2)cc1OC` [Example 55]: 80 to 500 nM and 800 to 5000 nM.
For `O=C(O)c1ccccc1C(=O)NC1(C(=O)N[C@@H](Cc2ccc(NC(=O)c3c(Cl)cccc3Cl)cc2)C(=O)O)CCCCC1` [Example 56], the results for the IC50 against α4β1 and at α4β1 integrin were 80 to 500 nM and 800 to 5000 nM, respectively.
Take `O=C(O)c1cccc(C(=O)NC2(C(=O)N[C@@H](Cc3ccc(NC(=O)c4c(Cl)cccc4Cl)cc3)C(=O)O)CCCCC2)c1` [Example 57]: the IC50 at α4β1 is 80 to 500 nM; at α4β1 integrin it was at most 800 nM.
In the case of `O=C(O)c1cncc(C(=O)NC2(C(=O)N[C@@H](Cc3ccc(NC(=O)c4c(Cl)cccc4Cl)cc3)C(=O)O)CCCCC2)c1` [Example 59], the IC50 on α4β1 is 80 to 500 nM; against α4β1 integrin it was 800 to 5000 nM.
The matching figures for `O=C(NC1(C(=O)N[C@@H](Cc2ccc(NC(=O)c3c(Cl)cccc3Cl)cc2)C(=O)O)CCCCC1)c1cccnc1` [Example 61]: 80 to 500 nM and at most 800 nM.
As for `O=C(O)c1cccc(C(=O)NC2(C(=O)N[C@@H](Cc3ccc(NC(=O)c4c(Cl)cccc4Cl)cc3)C(=O)O)CCCCC2)n1` [Example 62], the IC50 is 80 to 500 nM against α4β1 and 800 to 5000 nM against α4β1 integrin.
In the case of `O=C(O)c1ccc(C(=O)NC2(C(=O)N[C@@H](Cc3ccc(NC(=O)c4c(Cl)cccc4Cl)cc3)C(=O)O)CCCCC2)nc1` [Example 63], the IC50 was 80 to 500 nM against α4β1 and at most 800 nM at α4β1 integrin.
In the case of `O=C(NC1(C(=O)N[C@@H](Cc2ccc(NC(=O)c3c(Cl)cccc3Cl)cc2)C(=O)O)CCCCC1)c1cc(O)c2ccccc2n1` [Example 64], the IC50 lay within 80 to 500 nM on α4β1 and 800 to 5000 nM on α4β1 integrin.
Turning to `O=C(NC1(C(=O)N[C@@H](Cc2ccc(NC(=O)c3c(Cl)cccc3Cl)cc2)C(=O)O)CCCCC1)c1cc(C(=O)O)[nH]n1` [Example 65], the IC50 at α4β1 was 80 to 500 nM; against α4β1 integrin, 800 to 5000 nM.
The like results for `O=C(Nc1ccc(C[C@H](NC(=O)C2(NC(=O)C3NC(C(=O)O)CS3)CCCCC2)C(=O)O)cc1)c1c(Cl)cccc1Cl` (some centres unmarked) [Example 66] were, in that order, 80 to 500 nM and at most 800 nM.
The like results for `O=C(NC1(C(=O)N[C@@H](Cc2ccc(NC(=O)c3c(Cl)cccc3Cl)cc2)C(=O)O)CCCCC1)c1ccc([N+](=O)[O-])o1` [Example 67] were, in that order, 80 to 500 nM and at most 800 nM.
The matching figures for `O=C(Nc1ccc(C[C@H](NC(=O)C2(NC(=O)C3CCCO3)CCCCC2)C(=O)O)cc1)c1c(Cl)cccc1Cl` (some centres unmarked) [Example 68]: 80 to 500 nM and at most 800 nM.
Turning to `O=C(Nc1ccc(C[C@H](NC(=O)C2(NC(=O)C3CCOC3)CCCCC2)C(=O)O)cc1)c1c(Cl)cccc1Cl` (some centres unmarked) [Example 69], the values for the IC50 against α4β1 and against α4β1 integrin were 80 to 500 nM and at most 800 nM, respectively.
The like results for `O=C(NC1(C(=O)N[C@@H](Cc2ccc(NC(=O)c3c(Cl)cccc3Cl)cc2)C(=O)O)CC2CCC1C2)c1cccnc1` (some centres unmarked) [Example 70] were, in that order, 80 to 500 nM and 800 to 5000 nM.
As for `O=C(O)c1cccc(C(=O)NC2(C(=O)N[C@@H](Cc3ccc(NC(=O)c4c(Cl)cccc4Cl)cc3)C(=O)O)CC3CCC2C3)n1` (some centres unmarked) [Example 71], the IC50 lay within 80 to 500 nM against α4β1 and 800 to 5000 nM against α4β1 integrin.
Take `O=C(O)c1ccc(C(=O)NC2(C(=O)N[C@@H](Cc3ccc(NC(=O)c4c(Cl)cccc4Cl)cc3)C(=O)O)CC3CCC2C3)nc1` (some centres unmarked) [Example 72]: the IC50 was 80 to 500 nM against α4β1 and at most 800 nM against α4β1 integrin.
